Results from patent US11738031B2, “Compositions and methods for preventing or treating muscle conditions” (The Board of Trustees of the Leland Stanford Junior …, priority 2017, dated 2023).

Assays:
MuSCs = assay: VisionBlue metabolic viability dose-response assay; assay type: cell-based, mouse; settings: dose-response 1-200 ng/ml PGE2
Procedure: Proliferation assays: To assay proliferation, we used three different assays (hemocytometer, VisionBlue, and EdU). For each, we seeded MuSCs on flat hydrogels (hemocytometer and VisionBlue) or collagen-coated plates (EdU assay) at a density of 500 cells per cm^2 surface area. For hemocytometer cell number count, we collected cells at indicated timepoints by incubation with 0.5% trypsin in PBS for 5 min at 37° C. and quantified them using a hemocytometer at least 3 times. Additionally, we used the VisionBlue Quick Cell Viability Fluorometric Assay Kit (BioVision, catalog #K303) as a readout for cell growth in culture. Briefly, we incubated MuSCs with 10% VisionBlue in culture medium for 3 h, and measured fluorescence intensity on a fluorescence plate reader (Infinite M1000 PRO, Tecan) at Ex=530-570 nm, Em=590-620 nm. […] We quantified EdU positive cells using the MetaMorph Image Analysis software (Molecular Devices). Data analyses were blinded, where researchers performing cell scoring were unaware of the treatment condition given to sample groups analyzed.
To assay proliferation, we used three different assays (hemocytometer, VisionBlue, and EdU). […] For hemocytometer cell number count, we collected cells at indicated timepoints by incubation with 0.5% trypsin in PBS for 5 min at 37° C. and quantified them using a hemocytometer at least 3 times. […]

Nurr1 = Nurr1 expression in MuSCs (qRT-PCR, flow cytometry); assay type: cell-based, mouse; settings: 24 hr PGE2 treatment in culture
Procedure: We analyzed NURR1 levels by flow cytometry using myogenic progenitors after a 24 hr treatment of vehicle (DMSO) or PGE2 (10 ng/ml), or from MuSCs transfected with shSCR or shNurr1 (see Knockdown assays section). We collected cells by incubation with 0.5% trypsin in PBS for 2 min at 37° C. We fixed the cells using 1.6% paraformaldehyde in PBS and then permeabilized them in ice-cold methanol. We then blocked them in staining buffer (0.5% BSA in PBS) for 30 min at room temperature and stained them with a Mouse monoclonal anti-Nurr1 (Abcam, catalog #ab41917, 1:75) primary antibody or anti-mouse IgG control (Jackson ImmunoResearch Laboratories). […] We analyzed the cells on a FACS LSR II cytometer using FACSDiva software (BD Biosciences) in the Stanford Shared FACS Facility, purchased using an NIH S10 Shared Instrument Grant (S10RR027431-01).
We isolated RNA from MuSCs using the RNeasy Micro Kit (Qiagen). […] To quantify relative transcript levels, we used 2^ΔΔCt to compare treated and untreated samples and expressed the results relative to Gapdh. […] TaqMan Assays (Applied Biosystems) were used to quantify Pax7, Myogenin, Nurr1, Ptger3 and Ptger4 in samples according to the manufacturer instructions with the TaqMan Universal PCR Master Mix reagent kit (Applied Biosystems). […]

CCCCC[C@H](O)/C=C/[C@H]1[C@H](O)CC(=O)[C@@H]1C/C=C\CCCC(=O)O [PGE2, prostaglandin E2]
lowest drug concentration that promotes a robust MuSC proliferation response (MuSCs): 10 ng/mL
Nurr1 mRNA and protein expression (Nurr1): increased Nurr1 mRNA and protein expression
